Measurements: patent US20220241316A1, “25-HYDROXYCHOLESTEROL (25HC), CRYAB AGGREGATION INHIBITOR, IS A NOVEL SENOLYTIC” (Buck Institute for Research on Aging, priority 2019, published 2022)
Entries after “also recorded” stand apart in the source; their conditions may differ.

Key:
CRYAB protein [1] = biological target: T1, CRYAB protein (Homo sapiens, UniProt P02511); assay: Inhibition of CRYAB protein aggregation; details: stated with reference to Example 1; no aggregation test described
T1 sequence (P02511 1-175): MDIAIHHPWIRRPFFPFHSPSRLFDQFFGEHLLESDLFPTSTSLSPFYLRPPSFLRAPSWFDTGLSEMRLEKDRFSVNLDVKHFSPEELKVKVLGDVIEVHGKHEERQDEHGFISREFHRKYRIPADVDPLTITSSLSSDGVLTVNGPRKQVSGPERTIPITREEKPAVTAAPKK

senescent cells = assay: Evaluation of senolytic effects of 25HC, oxysterols and 25HC analogs in cell culture; type: cell-based; details: cell type not stated
Source text: Genetic knockdown of this gene kills senescent cells.
There are some commercially available analogs of 25HC such as oxysterols (Griffiths et al. (2019) Biochem Soc Trans., 47: 517-526).

[2] = test system: senescent human fetal lung fibroblast (IMR-90); assay: Cell viability assay (Cell Counting Kit-8) on NS and SEN IMR-90 cells; type: cell-based; details: treatment started immediately after removing DMSO/250 nM Doxo; 72 hrs; normalized to DMSO
Method: Panel A) Timeline for DMSO/250 nM Doxo treatment and early-time point timeline for 24(S)-HC and 27HC treatment on NS and SEN cells. 24(S)HC and 27HC treatment were started immediately after removing DMSO/Doxo. Panel B) and C) Cell viability assay were performed on NS and SEN cells treated with different concentrations of 24(S)HC and 27HC, respectively. 24(S)HC and 27HC treatment were done for 72 hrs. The cell viability was analyzed by Cell Counting Kit-8 according to the manufactures' protocol using Spectra Max 190 (Molecular Devices). The value was normalized to that of DMSO. (Mean+/−SE, n=3, *p<0.05, **p<0.01 and ***p<0.001 by student's t-test).

senescent mDFs = assay: Cell viability assay on NS and SEN mDFs treated with 25HC; type: cell-based, mouse; details: treatment 72 hrs
Method: (§1) Panel A) Timeline for DMSO/Doxo treatment and early-time point timeline for 25HC treatment on NS and SEN cells. 25HC treatment was started immediately after removing DMSO/Doxo. Panel B) Cell viability assay was performed on NS and SEN cells treated with different concentrations of 25HC. 25HC treatment was done for 72 hrs. (Mean+/−SD, n=3, *p<0.05, **p<0.01 vs 0 uM by student's t-test).
as §1, with “late-time” for “early-time”, “7 days” for “immediately”, “n=6, **p<0.01, ***p<0.001, **** p<0.0001,” for “n=3, *p<0.05, **p<0.01”

CRYAB protein [3] = biological target: T1, CRYAB protein; details: from Makley et al. (2015) / Xu et al. (2017); cited from earlier work
senescent FAPs = assay: Cell viability assay on NS and SEN FAPs treated with 25HC; type: cell-based, mouse; details: 25HC started immediately after removing DMSO/Doxo (early-time point); treatment total 5 days; normalized to 0 uM
Method: as §1, with “total 5 days. The value was normalized to that of 0 uM. The average value of 0 μM is expressed as 100% (Mean+/−SE,” for “72 hrs. (Mean+/−SD,”, “n=3,” for “n=3, *p<0.05,”, “and ***p<0.001” for “vs 0 uM”, “t-test vs NS).” for “t-test).”

p16INK4a mRNA [4] = assay: qPCR of p16INK4a mRNA in Doxo treated mDFs; type: cell-based, mouse; details: 250 nM Doxo for 24 hours; day 1, 5, 14; normalized to β-actin, vs DMSO
Method: (§2) As shown, mDFs undergo senescence upon 250 nM of Doxo treatment for 24 hours (Day 0). Real-time quantitative PCR (qPCR) was performed on RNA samples isolated from DMSO treated NS (Non-Senescent) mDF cells or Doxo treated SEN (Senescent) mDF cells at day 1, 5, and 14 after Doxo treatment. The amount of mRNA was normalized to the level of β-actin (see, e.g., Demaria et al. (2017) Cancer Discovery, 2: 165-176; and references cited therein). Relative levels of p16INK4a mRNA for DMSO and Doxo treated mDFs was measured. The average value of DMSO is expressed as 1. (Mean+/−SE, n=4, **p<0.01, ****p<0.0001 by Dunnett's multiple comparisons test vs DMSO).

p16INK4a mRNA [5] = assay: qPCR of p16INK4a mRNA in Doxo treated FAPs; type: cell-based, mouse; details: 250 nM Doxo for 24 hours; normalized to β-actin, vs DMSO
Method: As shown, FAPs undergo senescence upon 250 nM of Doxo treatment for 24 hours (Day 0). The mRNA was extracted from DMSO treated NS or Doxo treated SEN FAPs at indicated time points and quantified by qPCR. The amount of mRNA was normalized to the level of β-actin. The graphs show the relative levels of p16INK4a mRNA for DMSO and Doxo treated samples. The average value of DMSO is expressed as 1 (Mean+/−SE, n=3, *p<0.05 by Dunnett's multiple comparisons test vs DMSO).

CRYAB mRNA [6] = assay: qPCR of CRYAB mRNA in Doxo treated FAPs; type: cell-based, mouse; details: 250 nM doxorubicin 24 hrs; normalized to β-actin, vs DMSO
Method: The cells were treated with 250 nM doxorubicin and incubated for 24 hrs (Day 0). The mRNA was extracted from DMSO treated NS or Doxo treated SEN FAPs at the indicated time points and quantified by qPCR. The amount of mRNA was normalized to the level of β-actin mRNA. The average value of DMSO is expressed as 1 (Mean+/−SE, n=3, **p<0.01 and ***p<0.001 by Dunnett's multiple comparisons test vs DMSO).

CRYAB mRNA [7] = assay: qPCR of CRYAB mRNA in Doxo treated mDFs; type: cell-based, mouse; details: Doxo treated SEN mDFs day 1, 5, 14; normalized to β-actin, vs DMSO
Method: as §2, with “Real-time” for “As shown, mDFs undergo senescence upon 250 nM of Doxo treatment for 24 hours (Day 0). Real-time”, “NS” for “NS (Non-Senescent)”, “SEN” for “SEN (Senescent)”, “CRYAB” for “p16INK4a”, “*p<0.05, ***p<0.001” for “**p<0.01, ****p<0.0001”

Structure (SMILES) | Inhibition of CRYAB protein aggregation (as asserted in the description) (CRYAB protein [1]) | Senolytic effect (senescent cells) | also measured
C[C@@H](CCCC(C)(O)c1ccccc1)C1CCC2C3CC=C4C[C@H](O)CC[C@@]4(C)C3CC[C@]21C (relative stereo) [rel-(3R,10S,13S)-17-[(2S)-6-hydroxy-6-phenylheptan-2-yl]-10,13-dimethyl-2,3,4,7,8,9,10,11,12,13,14,15,16,17-tetradecahydro-1H-cyclopenta[a]phenanthren-3-ol] | effective inhibitors of CRYAB protein aggregation | novel senolytics | –
C[C@H](CCCC(C)(C)O)[C@H]1CC[C@H]2[C@@H]3[C@H](O)C=C4C[C@@H](O)CC[C@]4(C)[C@H]3CC[C@]12C [7α,25-Dihydroxycholesterol] | effective inhibitors of CRYAB protein aggregation | novel senolytics | –
CC(C)CCC[C@@H](C)[C@H]1CC[C@H]2[C@@H]3[C@H](O)C=C4C[C@@H](O)CC[C@]4(C)[C@H]3CC[C@]12C [7αHC, 7α-Hydroxycholesterol] | effective inhibitors of CRYAB protein aggregation | novel senolytics | –
CC(C)CCC[C@@H](C)[C@H]1CC[C@H]2[C@@H]3[C@@H](O)C=C4C[C@@H](O)CC[C@]4(C)[C@H]3CC[C@]12C [7βHC, 7β-Hydroxycholesterol] | effective inhibitors of CRYAB protein aggregation | novel senolytics | –
CC(C)CC[C@@H](O)[C@@H](C)[C@H]1CC[C@H]2[C@@H]3CC=C4C[C@@H](O)CC[C@]4(C)[C@H]3CC[C@]12C [22(R)HC, 22(R)-Hydroxycholesterol] | effective inhibitors of CRYAB protein aggregation | novel senolytics | –
CC(C)[C@@H](O)CC[C@@H](C)[C@H]1CC[C@H]2[C@@H]3CC=C4C[C@@H](O)CC[C@]4(C)[C@H]3CC[C@]12C [24(S)HC, 24(S)-Hydroxycholesterol] | effective inhibitor of CRYAB protein aggregation | novel senolytics | Cell viability of NS and SEN IMR-90 cells, early-time point [2]: specifically kill senescent human fetal lung fibroblast; also recorded: specifically kill senescent IMR-90 cells
C[C@H](CCCC(C)(C)O)[C@H]1CC[C@H]2[C@@H]3CC=C4C[C@@H](O)CC[C@]4(C)[C@H]3CC[C@]12C [25HC, 25-hydroxycholesterol] | effective inhibitor of CRYAB protein aggregation | novel senolytic agent | Cell viability of NS and SEN mDFs, late-time point (senescent mDFs; 25HC started 7 days after removing DMSO/Doxo): specifically kills senescent mDFs at late-timepoint; Cell viability of NS and SEN mDFs, early-time point (senescent mDFs; 25HC started immediately after removing DMSO/Doxo): specifically kills senescent mDFs at early-timepoint; Inhibition of CRYAB / CRYAB protein aggregation (literature) (CRYAB protein [3]): effective inhibitor of CRYAB; Cell viability of NS and SEN FAPs (senescent FAPs): specifically kills senescent FAPs
CC(=O)CCC[C@@H](C)[C@H]1CC[C@H]2[C@@H]3CC=C4C[C@@H](O)CC[C@]4(C)[C@H]3CC[C@]12C [27-Nor-25-ketocholesterol] | effective inhibitors of CRYAB protein aggregation | novel senolytics | –
C[C@@H](CO)CCC[C@@H](C)[C@H]1CC[C@H]2[C@@H]3CC=C4C[C@@H](O)CC[C@]4(C)[C@H]3CC[C@]12C [27HC, 27-Hydroxycholesterol] | effective inhibitor of CRYAB protein aggregation | novel senolytics | Cell viability of NS and SEN IMR-90 cells, early-time point [2]: specifically kill senescent human fetal lung fibroblast; also recorded: specifically kill senescent IMR-90 cells
CC(CCCN(C)C)C1CCC2C3CC=C4C[C@@H](O)CC[C@]4(C)C3CC[C@]12C (stereo partly drawn) [(3S,10R,13R)-17-(5-(dimethylamino)pentan-2-yl)-10,13-dimethyl-2,3,4,7,8,9,10,11,12,13,14,15,16,17-tetradecahydro-1H-cyclopenta[a]phenanthren-3-ol] | effective inhibitors of CRYAB protein aggregation | novel senolytics | –
C[C@H](CCC(=O)O)[C@H]1CCC2[C@@H]3CC=C4C[C@H](O)CC[C@]4(C)C3CC[C@@]21C (stereo partly drawn) [(3alpha,9xi,14xi)-3-hydroxychol-5-en-24-oic acid] | effective inhibitors of CRYAB protein aggregation | novel senolytics | –
C=C1CC[C@@H](O)CC1=C/C=C1\CCC[C@]2(C)[C@@H]([C@H](C)CCCC(C)(C)O)CC[C@@H]12 [Calcifediol 25-Hydroxyvitamin D3, reference compound] | effective inhibitors of CRYAB protein aggregation | novel senolytics | –
COc1cccc2c1C(=O)c1c(O)c3c(c(O)c1C2=O)C[C@@](O)(C(=O)CO)C[C@@H]3O[C@H]1C[C@H](N)[C@H](O)[C@H](C)O1 [Doxo, doxorubicin] | – | – | Relative level of p16INK4a mRNA in mDFs (p16INK4a mRNA [4]): induces senescence marker, p16INK4a; Relative level of p16INK4a mRNA in FAPs (p16INK4a mRNA [5]): induced senescence; Relative level of CRYAB mRNA in FAPs (CRYAB mRNA [6]): significantly increased; Relative level of CRYAB mRNA in mDFs (CRYAB mRNA [7]): upregulated CRYAB
